# Reference: patent US8436031B2 (priority 2004, dated 2013)
# Target: MarA (Escherichia coli, UniProt P0ACH5)
# Assay: Selective marker (ccdB) under MarA-activated promoter; cell survival under MarA expression (Example 2)
# Format: cell-based
# Parameters: key: *: good inhibition of MarA; **: very good inhibition of MarA
# Conditions: inhibition of MarA; cell survival under conditions of MarA expression
# Source text: In this example, the expression of a selective marker (e.g., ccdB) is put under the direct control of a promoter activated by MarA (e.g., inaA, galT, or micF). In the absence of MarA, the expression of the selective marker is silent and cells survive. Synthesis of MarA from an inducible plasmid in a bacterial or yeast cell leads to the activation of the inaA promoter, expression of ccdB, and subsequently results in cell death. Compounds that inhibit MarA are those that permit cell survival under conditions of MarA expression. In Table 4, * indicates good inhibition of MarA and ** indicates very good inhibition of MarA.
# Chain of MarA (P0ACH5 whole entry, looked up): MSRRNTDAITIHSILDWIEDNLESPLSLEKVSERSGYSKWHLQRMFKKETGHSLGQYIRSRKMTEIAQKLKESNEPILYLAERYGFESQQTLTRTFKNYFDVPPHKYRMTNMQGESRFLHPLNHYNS
row,Structure (SMILES),MarA inhibition score (cell survival)
1,"Cc1ccc(-c2nc3c(=O)n(-c4ccccc4)c4c(c(=O)n(C)c(=O)n4C)c3o2)cc1 [AL, 6,8-Dimethyl-5-phenyl-2-p-tolyl-5H,6H-1-oxa-3,5,6,8-tetraaza-cyclopenta[a]naphthalene-4,7,9-trione]",*
2,"CCCSc1nnc2c(n1)OC(c1ccc(OC)cc1)Nc1ccccc1-2 (stereo not drawn) [K, 6-(4-Methoxy-phenyl)-3-propylsulfanyl-6,7-dihydro-5-oxa-1,2,4,7-tetraaza-dibenzo[a,c]cycloheptene]",*
3,"O=c1/c(=C/c2cn(-c3ccccc3)nc2-c2ccc(F)cc2)sc2nc3ccccc3n12 [AM, 2-[3-(4-Fluoro-phenyl)-1-phenyl-1H-pyrazol-4-ylmethylene]-benzo[4,5]imidazo[2,1-b]thiazol-3-one]",**
4,"Cn1c(=O)c2c3oc(-c4ccc([N+](=O)[O-])cc4)nc3c(=O)n(-c3ccccc3)c2n(C)c1=O [AK, 6,8-Dimethyl-2-(4-nitro-phenyl)-5-phenyl-5H,6H-1-oxa-3,5,6,8-tetraaza-cyclopenta[a]naphthalene-4,7,9-trione]",**
5,"CCCSc1nnc2c(n1)OC(c1ccc(OCc3ccccc3)cc1)Nc1ccccc1-2 (stereo not drawn) [F, 6-(4-Benzyloxy-phenyl)-3-propylsulfanyl-6,7-dihydro-5-oxa-1,2,4,7-tetraaza-dibenzo[a,c]cycloheptene]",**
6,"Cc1ccc(COn2c(-c3ccccc3)nc3ccc([N+](=O)[O-])cc32)cc1 [AJ, 1-(4-Methyl-benzyloxy)-6-nitro-2-phenyl-1H-benzoimidazole]",*
7,"C=CCOc1ccc(C2Nc3ccccc3-c3nnc(SCCCC)nc3O2)cc1 (stereo not drawn) [I, 6-(4-Allyloxy-phenyl)-3-butylsulfanyl-6,7-dihydro-5-oxa-1,2,4,7-tetraaza-dibenzo[a,c]cycloheptene]",**
8,"N#Cc1c(-c2ccc3c(c2)OCO3)c(C#N)c2nc3ccccc3n2c1N [AB, 1-Amino-3-benzo[1,3]dioxol-5-yl-benzo[4,5]imidazo[1,2-a]pyridine-2,4-dicarbonitrile]",**
9,"O=C(O)COn1c(-c2ccccc2)nc2ccc([N+](=O)[O-])cc21 [BD, 2-[(6-nitro-2-phenyl-1H-1,3-benzimidazol-1-yl)oxy]acetic acid]",*
10,"O=C1C=Cc2ccccc2/C1=N\Oc1ccc2noc3c2c1C(=O)c1ccccc1-3 [Z, [1,2]Naphthoquinone 1-[O-(6-oxo-6H-anthra[1,9-cd]isoxazol-5-yl)-oxime]]",*
11,"CCCCSc1nnc2c(n1)OC(c1ccc(OCC)cc1)Nc1ccccc1-2 (stereo not drawn) [J, 3-Butylsulfanyl-6-(4-ethoxy-phenyl)-6,7-dihydro-5-oxa-1,2,4,7-tetraaza-dibenzo[a,c]cycloheptene]",*
12,"CCCCSc1nnc2c(n1)OC(c1ccc(OC)cc1OC)Nc1ccccc1-2 (stereo not drawn) [H, 3-Butylsulfanyl-6-(2,4-dimethoxy-phenyl)-6,7-dihydro-5-oxa-1,2,4,7-tetraaza-dibenzo[a,c]cycloheptene]",*
13,"CCOC(=O)C1=C(C)N=c2sc(=Cc3ccc(-c4ccc([N+](=O)[O-])cc4C)o3)c(=O)n2C1c1ccc2c(c1)OCO2 (stereo not drawn) [P, 5-Benzo[1,3]dioxol-5-yl-7-methyl-2-[5-(2-methyl-4-nitro-phenyl)-furan-2-ylmethylene]-3-oxo-2,3-dihydro-5H-thiazolo[3,2-a]pyrimidine-6-carboxylic acid ethyl ester]",*
14,"COC(=O)c1ccccc1NC(=O)CSc1nnc(-c2ccco2)n1-c1ccccc1 [AC, 2-[2-(5-Furan-2-yl-4-phenyl-4H-[1,2,4]triazol-3-ylsulfanyl)-acetylamino]-benzoic acid methyl ester]",*
15,"C=Cc1nc2s/c(=C\c3cn(-c4ccccc4)nc3-c3ccc(F)cc3)c(=O)n2c1C [AO, 2-[3-(4-Fluoro-phenyl)-1-phenyl-1H-pyrazol-4-ylmethylene]-5-methyl-6-vinyl-imidazo[2,1-b]thiazol-3-one]",**
16,"c1ccc(CSc2ncc(-c3nnnn3-c3ccccc3)c(-c3ccccc3)n2)cc1 [AY, 2-(benzylthio)-4-phenyl-5-(1-phenyl-1H-1,2,3,4-tetraazol-5-yl)pyrimidine]",**
17,"CN(C)c1ccc(-c2cc(=O)c3ccccc3o2)cc1 [AW, 2-[4-(dimethylamino)phenyl]-4H-chromen-4-one]",**
18,"COn1c(-c2ccc(C)cc2)nc2ncccc21 [BF, 1-methoxy-2-(4-methylphenyl)-1H-imidazo[4,5-b]pyridine]",*
19,"CCSc1nnc2c(n1)OC(c1ccc(O)c(O)c1)Nc1ccccc1-2 (stereo not drawn) [E, 4-(3-Ethylsulfanyl-6,7-dihydro-5-oxa-1,2,4,7-tetraaza-dibenzo[a,c]cyclo-hepten-6-yl)-benzene-1,2-diol]",*
20,"CSc1nnc2c(n1)OC(c1ccc(I)o1)Nc1ccccc1-2 (stereo not drawn) [A, 6-(5-Iodo-furan-2-yl)-3-methylsulfanyl-6,7-dihydro-5-oxa-1,2,4,7-tetraaza-dibenzo[a,c]cycloheptene]",**
21,"CCOC(=O)C1=C(C)N=c2s/c(=C\c3ccc(-c4cccc(C(=O)O)c4)o3)c(=O)n2C1c1c(OC)ccc2ccccc12 (stereo not drawn) [N, 2-[5-(3-Carboxy-phenyl)-furan-2-ylmethylene]-5-(2-methoxy-naphthalen-1-yl)-7-methyl-3-oxo-2,3-dihydro-5H-thiazolo[3,2-a]pyrimidine-6-carboxylic acid ethyl ester]",**
22,"CCOC(=O)C1=C(C)N=c2s/c(=C/c3ccc(-c4cccc(C(F)(F)F)c4)o3)c(=O)n2C1c1ccccc1 (stereo not drawn) [U, 7-Methyl-3-oxo-5-phenyl-2-[5-(3-trifluoromethyl-phenyl)-furan-2-ylmethylene]-2,3-dihydro-5H-thiazolo[3,2-a]pyrimidine-6-carboxylic acid ethyl ester]",**
23,"CCOC(=O)C1=C(C)N=c2s/c(=C\c3ccc(-c4cccc(C(=O)O)c4)o3)c(=O)n2C1c1ccc(N(C)C)cc1 (stereo not drawn) [W, 2-[5-(3-Carboxy-phenyl)-furan-2-ylmethylene]-5-(4-dimethylamino-phenyl)-7-methyl-3-oxo-2,3-dihydro-5H-thiazolo[3,2-a]pyrimidine-6-carboxylic acid ethyl ester]",**
24,"CSc1nnc2c(n1)OC(c1ccc(-c3ccc([N+](=O)[O-])cc3)o1)Nc1ccccc1-2 (stereo not drawn) [D, 3-Methylsulfanyl-6-[5-(4-nitro-phenyl)-furan-2-yl]-6,7-dihydro-5-oxa-1,2,4,7-tetraaza-dibenzo[a,c]cycloheptene]",*
25,"O=[N+]([O-])c1ccc2nc(-c3ccccc3)n(OCc3cccc(C(F)(F)F)c3)c2c1 [AG, 6-Nitro-2-phenyl-1-(3-trifluoromethyl-benzyloxy)-1H-benzoimidazole]",**
26,"c1ccc(COn2c(-c3ccccc3)nc3ncccc32)cc1 [AX, 1-(benzyloxy)-2-phenyl-1H-imidazo[4,5-b]pyridine]",**
27,"O=C1C(=C2NC(c3ccccn3)C3C(=O)N(c4ccccc4)C(=O)C23)C(=O)c2ccccc21 (stereo not drawn) [AF, 4-(1,3-Dioxo-indan-2-ylidene)-2-phenyl-6-pyridin-2-yl-tetrahydro-pyrrolo[3,4-c]pyrrole-1,3-dione]",**
